This experiment concerns the target T1, recombinant human Syk (GST-hSyk fusion protein) (Homo sapiens, UniProt P43405).
T1 construct: purchased Carna Biosciences 08-176
The experiment can be described thus: Homogeneous Time-Resolved Fluorescence (HTRF) assay for the recombinant human Syk enzyme. The format is biochemical. The following applies: IC50 class; 10-dose titration, 25 μM ATP; read-out: rhSYK Activity. In short, it runs like this:
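GST-hSyk (5 pM) preincubated 10 min with compound (0.1% DMSO) in 15 mM Tris-HCl pH 7.5, 2 mM DTT; reaction started with 250 nM biotinylated peptide, 5 mM Mg, 25 μM ATP, 45 min, room temperature. EDTA quench, Eu-anti-phosphotyrosine/SA-APC HTRF read after 30 min; IC50 from 10-dose titration (10 μM–0.508 nM), four-parameter fit.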
A general note: TR-FRET usually uses a lanthanide donor and a delayed reading to cut background.

`Cc1cc(Nc2nccc(C(F)F)n2)cc(-c2cnn(C(C)C3CNC(=O)C3)c2)c1` (stereo not drawn) [Example 2.69, 4-{1-[4-(3-{[4-(difluoromethyl)pyrimidin-2-yl]amino}-5-methylphenyl)-1H-pyrazol-1-yl]ethyl}pyrrolidin-2-one]: the IC50 is ≤ 100 nM.
Consider `Cc1cc(Nc2nccc(C(F)F)n2)cc(-c2cnn(C(C)C3CNC(=O)C3)c2)c1` (stereo not drawn) [Example 2.70, 4-{1-[4-(3-{[4-(difluoromethyl)pyrimidin-2-yl]amino}-5-methylphenyl)-1H-pyrazol-1-yl]ethyl}pyrrolidin-2-one], for which the IC50 was ≤ 100 nM.
As for `Cc1cc(Nc2nccc(C(F)F)n2)cc(-c2cnn(CC3CC(=O)NC3=O)c2)c1` (stereo not drawn) [Example 2.71, 3-{[4-(3-{[4-(difluoromethyl)pyrimidin-2-yl]amino}-5-methylphenyl)-1H-pyrazol-1-yl]methyl}pyrrolidine-2,5-dione], the IC50 was ≤ 100 nM.
The value for `Cc1cc(Nc2nccc(C(F)F)n2)cc(-c2cnn(Cc3cc[nH]c(=O)c3)c2)c1` [Example 2.72, 4-{[4-(3-{[4-(difluoromethyl)pyrimidin-2-yl]amino}-5-methylphenyl)-1H-pyrazol-1-yl]methyl}pyridin-2(1H)-one] was ≤ 100 nM.
The value for `Cc1cc(Nc2nccc(C(F)F)n2)cc(-c2cnn(CC3CC(=O)NC3=O)c2)c1` (stereo not drawn) [Example 2.73, 3-{[4-(3-{[4-(difluoromethyl)pyrimidin-2-yl]amino}-5-methylphenyl)-1H-pyrazol-1-yl]methyl}pyrrolidine-2,5-dione] was ≤ 100 nM.
The value for `Cc1cc(Nc2nccc(C(F)F)n2)cc(-c2cnn(CC3OC(=O)NC3=O)c2)c1` (stereo not drawn) [Example 2.74, 5-{[4-(3-{[4-(difluoromethyl)pyrimidin-2-yl]amino}-5-methylphenyl)-1H-pyrazol-1-yl]methyl}-1,3-oxazolidine-2,4-dione] was ≤ 100 nM.
Regarding `Cc1cc(Nc2nccc(C(F)F)n2)cc(-c2cnn(CC3OC(=O)NC3=O)c2)c1` (stereo not drawn) [Example 2.75, 5-{[4-(3-{[4-(difluoromethyl)pyrimidin-2-yl]amino}-5-methylphenyl)-1H-pyrazol-1-yl]methyl}-1,3-oxazolidine-2,4-dione], the IC50 is ≤ 100 nM.
Then `Cc1cc(Nc2nccc(C(F)F)n2)cc(-c2cnn(CC3CC(=O)NC3C)c2)c1` (stereo not drawn) [Example 2.76, 4-{[4-(3-{[4-(difluoromethyl)pyrimidin-2-yl]amino}-5-methylphenyl)-1H-pyrazol-1-yl]methyl}-5-methylpyrrolidin-2-one], with ≤ 100 nM; and `Cc1cc(Nc2nccc(C(F)F)n2)cc(-c2cnn(CC3(C)CNC(=O)C3)c2)c1` (stereo not drawn) [Example 2.77, 4-{[4-(3-{[4-(difluoromethyl)pyrimidin-2-yl]amino}-5-methylphenyl)-1H-pyrazol-1-yl]methyl}-4-methylpyrrolidin-2-one], with ≤ 100 nM.
Then `Cc1cc(Nc2nccc(C(F)F)n2)cc(-c2cnn(CC3CCNC(=O)O3)c2)c1` (stereo not drawn) [Example 2.78, 6-{[4-(3-{[4-(difluoromethyl)pyrimidin-2-yl]amino}-5-methylphenyl)-1H-pyrazol-1-yl]methyl}-1,3-oxazinan-2-one], with ≤ 100 nM.
For the molecule `Cc1cc(Nc2nccc(C(F)F)n2)cc(-c2cnn(CC3CC(=O)NC3C)c2)c1` (stereo not drawn) [Example 2.79, 4-{[4-(3-{[4-(difluoromethyl)pyrimidin-2-yl]amino}-5-methylphenyl)-1H-pyrazol-1-yl]methyl}-5-methylpyrrolidin-2-one], the IC50 was ≤ 100 nM.
As for `Cc1cc(Nc2nccc(C(F)F)n2)cc(-c2cnn(CC3(C)CNC(=O)C3)c2)c1` (stereo not drawn) [Example 2.80, 4-{[4-(3-{[4-(difluoromethyl)pyrimidin-2-yl]amino}-5-methylphenyl)-1H-pyrazol-1-yl]methyl}-4-methylpyrrolidin-2-one], the IC50 is ≤ 100 nM.
The value for `Cc1cc(Nc2nccc(C(F)F)n2)cc(-c2cnn(CC3CCNC(=O)O3)c2)c1` (stereo not drawn) [Example 2.81, 6-{[4-(3-{[4-(difluoromethyl)pyrimidin-2-yl]amino}-5-methylphenyl)-1H-pyrazol-1-yl]methyl}-1,3-oxazinan-2-one] was ≤ 100 nM.
The value for `Cc1cc(Nc2nccc(C(F)F)n2)cc(-c2cnn(CCN)c2)c1` [Example 2.82, N-{3-[1-(2-aminoethyl)-1H-pyrazol-4-yl]-5-methylphenyl}-4-(difluoromethyl)pyrimidin-2-amine] was ≤ 100 nM; that for `Cc1cc(Nc2nccc(C(F)F)n2)cc(-c2cnn(C[C@@H]3CNCCO3)c2)c1` [Example 2.83, 4-(difluoromethyl)-N-(3-methyl-5-{1-[(2S)-morpholin-2-ylmethyl]-1H-pyrazol-4-yl}phenyl)pyrimidin-2-amine] was ≤ 100 nM.
The value for `Cc1cc(Nc2nccc(C(F)F)n2)cc(-c2cnn(C[C@H]3CNCCO3)c2)c1` [Example 2.84, 4-(difluoromethyl)-N-(3-methyl-5-{1-[(2R)-morpholin-2-ylmethyl]-1H-pyrazol-4-yl}phenyl)pyrimidin-2-amine] was ≤ 100 nM; that for `Cc1cc(Nc2nccc(C(F)F)n2)cc(-c2cnn(CC(C)(C)N)c2)c1` [Example 2.85, N-{3-[1-(2-amino-2-methylpropyl)-1H-pyrazol-4-yl]-5-methylphenyl}-4-(difluoromethyl)pyrimidin-2-amine] was ≤ 100 nM; that for `C[C@@](O)(CO)Cn1cc(-c2cccc(Nc3nccc(C(F)(F)F)n3)c2)cn1` [Example 2.86, (2S)-2-methyl-3-[4-(3-{[4-(trifluoromethyl)pyrimidin-2-yl]amino}phenyl)-1H-pyrazol-1-yl]propane-1,2-diol] was ≤ 100 nM.
As for `Cc1cc(Nc2nccc(C(C)O)n2)cc(-c2cnn(C[C@](C)(O)CO)c2)c1` (stereo partly drawn) [Example 2.87, (2S)-3-[4-(3-{[4-(1-hydroxyethyl)pyrimidin-2-yl]amino}-5-methylphenyl)-1H-pyrazol-1-yl]-2-methylpropane-1,2-diol], the IC50 is ≤ 100 nM.
For `COc1ccnc(Nc2cc(C)cc(-c3cnn(C[C@](C)(O)CO)c3)c2)n1` [Example 2.88, (2S)-3-(4-{3-[(4-methoxypyrimidin-2-yl)amino]-5-methylphenyl}-1H-pyrazol-1-yl)-2-methylpropane-1,2-diol], the IC50 is ≤ 100 nM.
In the case of `COc1nc(Nc2cc(C)cc(-c3cnn(C[C@](C)(O)CO)c3)c2)ncc1F` [Example 2.89, (2S)-3-(4-{3-[(5-fluoro-4-methoxypyrimidin-2-yl)amino]-5-methylphenyl}-1H-pyrazol-1-yl)-2-methylpropane-1,2-diol], the IC50 is ≤ 100 nM.
`Cc1cc(Nc2nccc(C3CC3)n2)cc(-c2cnn(C[C@](C)(O)CO)c2)c1` [Example 2.90, (2S)-3-(4-{3-[(4-cyclopropylpyrimidin-2-yl)amino]-5-methylphenyl}-1H-pyrazol-1-yl)-2-methylpropane-1,2-diol]: the IC50 is ≤ 100 nM.
The value for `C[C@@](O)(CO)Cn1cc(-c2cc(F)cc(Nc3nccc(C(F)(F)F)n3)c2)cn1` [Example 2.91, (2S)-3-[4-(3-fluoro-5-{[4-(trifluoromethyl)pyrimidin-2-yl]amino}phenyl)-1H-pyrazol-1-yl]-2-methylpropane-1,2-diol] was ≤ 100 nM; that for `C[C@@](O)(CO)Cn1cc(-c2cccc(Nc3nccc(C(F)F)n3)c2)cn1` [Example 2.92, (2S)-3-[4-(3-{[4-(difluoromethyl)pyrimidin-2-yl]amino}phenyl)-1H-pyrazol-1-yl]-2-methylpropane-1,2-diol] was ≤ 100 nM.

For the origin of these results see patent US9242984B2, “Pyrazolyl derivatives as Syk inhibitors” (Merck Sharp & Dohme Corp., priority 2012, dated 2016).
